Data taken from ChEMBL document CHEMBL6153094, “Rationally designed highly amphipathic antimicrobial peptides demonstrating superior bacterial selectivity relative to the corresponding α-helix peptide” (Eur J Med Chem, 2025).
Values after ≈ are worked out from the molar mass of the structure shown. Active and inactive are the calls of the source. The rule behind the calls is not given here.

Columns and labels:
Acinetobacter baumannii = experiment: Antimicrobial activity against Acinetobacter baumannii ATCC 19606 assessed as inhibition of visible bacterial growth incubated for 18 hrs by broth microdilution method; format: functional
Escherichia coli = experiment: Antimicrobial activity against Escherichia coli ATCC 25922 assessed as inhibition of visible bacterial growth incubated for 18 hrs by broth microdilution method; format: functional
Klebsiella pneumoniae = experiment: Antimicrobial activity against Klebsiella pneumoniae ATCC 700603 assessed as inhibition of visible bacterial growth incubated for 18 hrs by broth microdilution method; format: functional
Pseudomonas aeruginosa = experiment: Antimicrobial activity against Pseudomonas aeruginosa ATCC 27853 assessed as inhibition of visible bacterial growth incubated for 18 hrs by broth microdilution method; format: functional
Bacillus subtilis = experiment: Antimicrobial activity against Bacillus subtilis ATCC 23857 assessed as inhibition of visible bacterial growth incubated for 18 hrs by broth microdilution method; format: functional
[1] = test system: Staphylococcus epidermidis; experiment: Antimicrobial activity against Staphylococcus epidermidis ATCC 12228 assessed as inhibition of visible bacterial growth incubated for 18 hrs by broth-dilution method; format: functional
Staphylococcus aureus [2] = experiment: Antimicrobial activity against Staphylococcus aureus ATCC 25923 assessed as inhibition of visible bacterial growth incubated for 18 hrs by broth-dilution method; format: functional
Enterococcus faecalis = experiment: Antimicrobial activity against Enterococcus faecalis ATCC 29212 assessed as inhibition of visible bacterial growth incubated for 18 hrs by broth-dilution method; format: functional
[3] = Hemolytic activity in mouse red blood cells assessed as hemolysis incubated for 1 hrs by absorbance based assay; format: toxicity, cell-based; conditions: erythrocyte
Staphylococcus aureus [4] = experiment: Antimicrobial activity against methicillin-drug resistant Staphylococcus aureus ATCC 33591 assessed as concentration required to eliminate 90% bacteria incubated for 18 hrs by broth-microdilution method; format: functional
Staphylococcus aureus [5] = experiment: Antibacterial activity against methicillin-resistant Staphylococcus aureus ATCC 33591 infected in male Balb/c mouse model of full thickness skin wound assessed as reduction in bacterial load in skin at 1 mg/ml pre-infected with bacteria for 1 hrs followed by compound administration at 1,12 and 36 hrs post infection and measured 60 hrs post infection by agar plate method; format: functional, organism-based; conditions: time 59.0 hrs
Staphylococcus aureus [6] = experiment: Antibacterial activity against methicillin-resistant Staphylococcus aureus ATCC 33591 infected in male Balb/c mouse model of full thickness skin wound assessed as reduction in bacteria in skin wound at 1 mg/ml pre-infected with bacteria for 1 hrs followed by compound administration at 1,12 and 36 hrs post infection and measured after 10 days by photographic analysis; format: functional, organism-based; conditions: time 10.0 day
Staphylococcus aureus [7] = experiment: (§1) Antibacterial activity against methicillin-resistant Staphylococcus aureus ATCC 33591 infected in male Balb/c mouse model of full thickness skin wound assessed as reduction in number of inflammatory cells in skin at 1 mg/ml pre-infected with bacteria for 1 hrs followed by compound administration at 1,12 and 36 hrs post infection and measured after 10 days by H and E staining based analysis; format: functional, organism-based; conditions: time 10.0 day
Staphylococcus aureus [8] = experiment: as §1, with “decrease” for “reduction”, “cell necrosis” for “number of inflammatory cells”; format: functional, organism-based; conditions: time 10.0 day

Compound | MIC (Acinetobacter baumannii) | MIC (Escherichia coli) | MIC (Klebsiella pneumoniae) | MIC (Pseudomonas aeruginosa) | MIC (Bacillus subtilis) | MIC [1] | MIC (Staphylococcus aureus [2]) | MIC (Enterococcus faecalis) | HC10 [3] | EC90 (Staphylococcus aureus [4]) | Activity (Staphylococcus aureus [5]) | Activity (Staphylococcus aureus [6]) | Activity (Staphylococcus aureus [7]) | Activity (Staphylococcus aureus [8]) | Activity [3]
H-RRWFRRWIRWFI-NH2 | 16 µM | 16 µM | 16 µM | 16 µM | 1 µM | 4 µM | 16 µM | 16 µM | 2.39 µM |  |  |  |  |  | 
CN[C@H](CC(C)C)C(=O)N[C@H]1C(=O)N[C@@H](CC(N)=O)C(=O)N[C@H]2C(=O)N[C@H]3C(=O)N[C@H](C(=O)N[C@H](C(=O)O)c4cc(O)cc(O)c4-c4cc3ccc4O)[C@H](O)c3ccc(c(Cl)c3)Oc3cc2cc(c3O[C@@H]2O[C@H](CO)[C@@H](O)[C@H](O)[C@H]2O[C@H]2C[C@](C)(N)[C@H](O)[C@H](C)O2)Oc2ccc(cc2Cl)[C@H]1O [VANCOMYCIN] | 32 µM (≈ 46.4 µg/mL) | 128 µM (≈ 186 µg/mL) | 128 µM (≈ 186 µg/mL) | > 128 µM | < 1 µM | < 1 µM | < 1 µM | 2 µM (≈ 2.9 µg/mL) |  | 289 nM | Active | Active; Obvious Facilitation Of Wound Healing Not Observed | Active | Active | 
H-RRWFRRWKRWFK-NH2 | 16 µM | 8 µM | 4 µM | 2 µM | 1 µM | 2 µM | 4 µM | 32 µM | > 256 µM |  |  |  |  |  | 
H-RRWFRRWLRWFL-NH2 | 32 µM | 16 µM | 32 µM | 16 µM | 2 µM | 2 µM | 16 µM | 32 µM |  |  |  |  |  |  | Toxic
CO[C@H]1/C=C/O[C@@]2(C)Oc3c(C)c(O)c4c(O)c(c(/C=N/N5CCN(C)CC5)c(O)c4c3C2=O)NC(=O)/C(C)=C\C=C\[C@H](C)[C@H](O)[C@@H](C)[C@@H](O)[C@@H](C)[C@H](OC(C)=O)[C@@H]1C [RIFAMPIN] | 1 µM (≈ 0.823 µg/mL) | 8 µM (≈ 6.58 µg/mL) | 32 µM (≈ 26.3 µg/mL) | 32 µM (≈ 26.3 µg/mL) | < 1 µM | < 1 µM | < 1 µM | < 1 µM |  |  |  |  |  |  | 
H-RRWFRRWWRWFW-NH2 | 32 µM | 32 µM | 64 µM | 32 µM | 4 µM | 4 µM | 32 µM | 32 µM |  |  |  |  |  |  | Toxic
H-RRWFRRWERWFE-NH2 | 32 µM | 16 µM | 16 µM | 16 µM | 4 µM | 8 µM | 32 µM | 128 µM | > 256 µM |  |  |  |  |  | 
H-RRWFRRWFRWFF-NH2 | 32 µM | 32 µM | 32 µM | 16 µM | 2 µM | 4 µM | 32 µM | 32 µM |  |  |  |  |  |  | Toxic
H-RRWFRRWGRWFG-NH2 [listing 1 of 2 here] |  |  |  |  |  |  |  |  | > 256 µM |  |  |  |  |  | 
H-RRWFRRWGRWFG-NH2 [listing 2 of 2 here] | 32 µM | 8 µM | 8 µM | 2 µM | 2 µM | 2 µM | 16 µM | 32 µM |  |  |  |  |  |  | 
H-RRWFRRWTRWFT-NH2 | 8 µM | 8 µM | 8 µM | 4 µM | 1 µM | 2 µM | 8 µM | 16 µM | > 256 µM |  |  |  |  |  | 
H-RRWFRRWFRRWF-NH2 | 16 µM | 16 µM | 16 µM | 16 µM | 8 µM | 8 µM | 8 µM | 16 µM | 16.44 µM |  |  |  |  |  | 
